# Reference: ChEMBL document CHEMBL5465560, “Selectivity Literature for EUbOPEN Chemogenomic Library” (2024)
# Legend:
# Conditions in all cases: at 10 µM
# [1] = target: Serine/threonine-protein kinase RIO2 (Homo sapiens) (UniProt Q9BVS4); assay: Selectivity interaction (KinomeScan (DiscoverX)) EUB0000229b RIOK2
# [2] = target: T1, Non-receptor tyrosine-protein kinase TNK1 (Homo sapiens) (UniProt Q13470); assay: Selectivity interaction (KinomeScan (DiscoverX)) EUB0000666a TNK1
# T1 sequence (whole entry): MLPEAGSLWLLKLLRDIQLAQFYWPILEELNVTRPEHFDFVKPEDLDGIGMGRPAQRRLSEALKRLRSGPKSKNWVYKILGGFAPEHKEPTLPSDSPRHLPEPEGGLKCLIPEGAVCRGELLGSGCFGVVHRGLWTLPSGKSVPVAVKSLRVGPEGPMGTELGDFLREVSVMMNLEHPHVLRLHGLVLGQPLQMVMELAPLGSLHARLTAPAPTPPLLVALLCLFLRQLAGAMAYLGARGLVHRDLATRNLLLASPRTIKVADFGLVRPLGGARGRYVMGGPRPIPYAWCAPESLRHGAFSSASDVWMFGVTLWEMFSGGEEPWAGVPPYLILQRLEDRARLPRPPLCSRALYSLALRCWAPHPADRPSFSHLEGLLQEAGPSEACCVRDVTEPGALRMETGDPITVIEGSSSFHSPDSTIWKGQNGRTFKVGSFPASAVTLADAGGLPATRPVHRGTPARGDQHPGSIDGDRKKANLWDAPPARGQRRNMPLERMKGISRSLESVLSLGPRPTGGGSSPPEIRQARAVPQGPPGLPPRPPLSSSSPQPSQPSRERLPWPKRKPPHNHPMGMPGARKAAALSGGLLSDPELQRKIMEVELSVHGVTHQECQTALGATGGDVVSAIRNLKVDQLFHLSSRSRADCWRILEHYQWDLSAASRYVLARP
# [3] = target: T2, Cyclin-G-associated kinase (Homo sapiens) (UniProt O14976); assay: Selectivity interaction (KinomeScan (DiscoverX)) EUB0000618a GAK
# T2 sequence (whole entry): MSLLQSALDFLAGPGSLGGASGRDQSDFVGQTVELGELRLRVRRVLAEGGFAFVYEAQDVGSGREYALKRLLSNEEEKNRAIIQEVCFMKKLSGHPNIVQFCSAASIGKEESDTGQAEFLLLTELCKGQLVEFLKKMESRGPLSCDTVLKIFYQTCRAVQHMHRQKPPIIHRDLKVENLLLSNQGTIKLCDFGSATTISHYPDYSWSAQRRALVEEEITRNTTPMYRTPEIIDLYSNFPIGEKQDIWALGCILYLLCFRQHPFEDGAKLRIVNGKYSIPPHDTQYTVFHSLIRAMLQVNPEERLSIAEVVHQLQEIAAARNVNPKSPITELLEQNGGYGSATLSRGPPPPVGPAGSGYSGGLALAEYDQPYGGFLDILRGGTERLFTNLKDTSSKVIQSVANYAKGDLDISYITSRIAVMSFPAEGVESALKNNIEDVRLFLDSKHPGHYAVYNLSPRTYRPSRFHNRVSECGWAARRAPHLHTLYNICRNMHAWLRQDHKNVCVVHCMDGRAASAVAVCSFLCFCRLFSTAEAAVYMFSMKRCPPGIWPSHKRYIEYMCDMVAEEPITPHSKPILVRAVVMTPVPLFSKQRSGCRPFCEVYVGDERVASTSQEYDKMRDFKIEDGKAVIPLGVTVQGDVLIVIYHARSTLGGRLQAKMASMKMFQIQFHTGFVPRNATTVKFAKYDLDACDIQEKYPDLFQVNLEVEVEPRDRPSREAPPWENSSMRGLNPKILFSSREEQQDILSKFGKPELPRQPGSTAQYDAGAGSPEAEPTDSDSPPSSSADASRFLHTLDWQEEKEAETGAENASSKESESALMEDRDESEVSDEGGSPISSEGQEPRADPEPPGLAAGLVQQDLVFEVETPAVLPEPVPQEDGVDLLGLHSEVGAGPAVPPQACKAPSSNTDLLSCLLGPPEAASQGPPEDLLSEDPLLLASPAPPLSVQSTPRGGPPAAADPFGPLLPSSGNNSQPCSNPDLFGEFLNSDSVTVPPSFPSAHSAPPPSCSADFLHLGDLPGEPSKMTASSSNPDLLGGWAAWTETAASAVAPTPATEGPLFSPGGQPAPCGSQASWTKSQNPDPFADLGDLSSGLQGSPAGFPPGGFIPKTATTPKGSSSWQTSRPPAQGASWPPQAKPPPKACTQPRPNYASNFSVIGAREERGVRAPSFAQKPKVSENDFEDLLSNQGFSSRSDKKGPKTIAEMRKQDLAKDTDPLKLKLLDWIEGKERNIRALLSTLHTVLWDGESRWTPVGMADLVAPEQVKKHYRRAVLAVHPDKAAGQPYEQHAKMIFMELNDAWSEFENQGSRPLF
# [4] = test system: eIF-2-alpha kinase GCN2 (Homo sapiens), Q9P2K8 [S808G]; assay: Selectivity interaction (KinomeScan (DiscoverX)) EUB0000655a EIF2AK4
# [5] = target: Dual specificity protein kinase CLK1 (Homo sapiens, UniProt P49759)
# [6] = target: Ephrin type-A receptor 7 (Homo sapiens) (UniProt Q15375); assay: Selectivity interaction (KinomeScan (DiscoverX)) EUB0000092b EPHA7
# [7] = target: Platelet-derived growth factor receptor beta (Homo sapiens, UniProt P09619); assay: Selectivity interaction (KinomeScan (DiscoverX)) EUB0000092b PDGFRB
# Platelet-derived growth factor receptor beta, sequence (P09619 whole entry): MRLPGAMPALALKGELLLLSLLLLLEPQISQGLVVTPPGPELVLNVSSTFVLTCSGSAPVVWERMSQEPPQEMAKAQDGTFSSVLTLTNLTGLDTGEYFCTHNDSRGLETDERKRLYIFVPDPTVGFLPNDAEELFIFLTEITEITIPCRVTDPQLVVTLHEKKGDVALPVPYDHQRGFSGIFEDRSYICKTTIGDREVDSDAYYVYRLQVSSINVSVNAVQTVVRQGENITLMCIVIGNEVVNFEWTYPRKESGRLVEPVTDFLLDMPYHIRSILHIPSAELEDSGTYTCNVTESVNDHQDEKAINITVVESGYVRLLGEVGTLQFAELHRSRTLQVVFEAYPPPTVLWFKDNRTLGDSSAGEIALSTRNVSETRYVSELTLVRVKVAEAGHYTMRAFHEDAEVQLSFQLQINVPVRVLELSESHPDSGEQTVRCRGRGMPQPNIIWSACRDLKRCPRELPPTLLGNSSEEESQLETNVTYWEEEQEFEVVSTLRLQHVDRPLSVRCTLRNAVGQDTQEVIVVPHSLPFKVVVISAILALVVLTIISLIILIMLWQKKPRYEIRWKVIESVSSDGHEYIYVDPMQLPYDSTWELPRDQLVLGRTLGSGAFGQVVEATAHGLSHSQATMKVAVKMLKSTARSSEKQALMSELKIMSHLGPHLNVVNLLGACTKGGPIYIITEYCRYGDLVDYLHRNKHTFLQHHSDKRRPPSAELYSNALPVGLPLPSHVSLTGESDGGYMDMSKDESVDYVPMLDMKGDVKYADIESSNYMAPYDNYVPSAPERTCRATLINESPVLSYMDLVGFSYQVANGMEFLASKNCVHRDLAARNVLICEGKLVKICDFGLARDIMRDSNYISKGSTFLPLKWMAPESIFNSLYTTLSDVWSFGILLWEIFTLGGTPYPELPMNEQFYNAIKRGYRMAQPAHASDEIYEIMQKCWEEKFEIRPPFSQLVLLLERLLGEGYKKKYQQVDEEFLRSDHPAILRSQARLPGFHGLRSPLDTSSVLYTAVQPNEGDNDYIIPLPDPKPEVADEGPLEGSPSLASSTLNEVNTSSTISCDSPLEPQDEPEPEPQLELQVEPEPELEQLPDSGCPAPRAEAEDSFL
# eIF-2-alpha kinase GCN2 (Homo sapiens), Q9P2K8 [S808G], sequence (Q9P2K8 whole entry S808G): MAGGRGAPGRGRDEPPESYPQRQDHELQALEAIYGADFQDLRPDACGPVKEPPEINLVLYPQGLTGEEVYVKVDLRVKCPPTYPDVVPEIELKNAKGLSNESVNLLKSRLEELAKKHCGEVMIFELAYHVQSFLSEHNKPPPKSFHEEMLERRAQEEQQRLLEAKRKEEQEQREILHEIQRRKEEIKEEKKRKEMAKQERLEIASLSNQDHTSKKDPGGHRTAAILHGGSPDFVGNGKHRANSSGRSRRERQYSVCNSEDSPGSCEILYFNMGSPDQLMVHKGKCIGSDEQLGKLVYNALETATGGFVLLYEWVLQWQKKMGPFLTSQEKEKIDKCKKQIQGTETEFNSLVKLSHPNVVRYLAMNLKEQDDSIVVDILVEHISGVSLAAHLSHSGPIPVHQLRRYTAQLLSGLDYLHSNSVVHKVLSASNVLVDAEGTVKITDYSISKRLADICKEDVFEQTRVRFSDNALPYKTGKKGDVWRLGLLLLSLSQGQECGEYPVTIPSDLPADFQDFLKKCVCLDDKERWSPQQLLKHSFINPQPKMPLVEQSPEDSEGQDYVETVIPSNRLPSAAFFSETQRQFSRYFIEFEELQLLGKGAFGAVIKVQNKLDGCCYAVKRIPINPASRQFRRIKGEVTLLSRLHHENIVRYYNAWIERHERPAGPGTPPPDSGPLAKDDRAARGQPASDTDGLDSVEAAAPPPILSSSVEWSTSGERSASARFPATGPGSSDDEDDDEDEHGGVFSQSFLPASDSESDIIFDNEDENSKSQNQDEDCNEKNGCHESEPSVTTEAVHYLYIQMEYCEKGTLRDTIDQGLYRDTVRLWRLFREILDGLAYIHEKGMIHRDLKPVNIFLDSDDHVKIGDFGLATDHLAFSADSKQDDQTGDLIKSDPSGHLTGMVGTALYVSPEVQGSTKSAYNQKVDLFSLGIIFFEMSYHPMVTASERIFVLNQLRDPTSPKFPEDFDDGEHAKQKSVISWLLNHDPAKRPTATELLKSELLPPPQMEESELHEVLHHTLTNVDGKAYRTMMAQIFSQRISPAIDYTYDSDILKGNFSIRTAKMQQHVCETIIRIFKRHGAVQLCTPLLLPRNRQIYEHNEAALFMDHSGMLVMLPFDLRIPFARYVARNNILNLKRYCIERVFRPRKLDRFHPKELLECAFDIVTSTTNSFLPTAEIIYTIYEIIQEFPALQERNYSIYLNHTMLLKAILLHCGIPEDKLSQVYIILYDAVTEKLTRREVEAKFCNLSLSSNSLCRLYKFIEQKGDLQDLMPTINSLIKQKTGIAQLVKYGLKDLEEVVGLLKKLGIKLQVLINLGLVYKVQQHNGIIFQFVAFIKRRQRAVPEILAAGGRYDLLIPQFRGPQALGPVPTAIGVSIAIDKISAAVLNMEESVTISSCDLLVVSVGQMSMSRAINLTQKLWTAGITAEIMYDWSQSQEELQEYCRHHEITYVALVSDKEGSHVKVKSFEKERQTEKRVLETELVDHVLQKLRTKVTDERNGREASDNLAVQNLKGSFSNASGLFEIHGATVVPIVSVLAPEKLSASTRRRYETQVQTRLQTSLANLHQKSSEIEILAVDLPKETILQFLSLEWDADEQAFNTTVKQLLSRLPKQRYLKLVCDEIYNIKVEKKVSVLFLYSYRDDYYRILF
# Ephrin type-A receptor 7 (Homo sapiens), sequence (Q15375 28-998 limits assumed): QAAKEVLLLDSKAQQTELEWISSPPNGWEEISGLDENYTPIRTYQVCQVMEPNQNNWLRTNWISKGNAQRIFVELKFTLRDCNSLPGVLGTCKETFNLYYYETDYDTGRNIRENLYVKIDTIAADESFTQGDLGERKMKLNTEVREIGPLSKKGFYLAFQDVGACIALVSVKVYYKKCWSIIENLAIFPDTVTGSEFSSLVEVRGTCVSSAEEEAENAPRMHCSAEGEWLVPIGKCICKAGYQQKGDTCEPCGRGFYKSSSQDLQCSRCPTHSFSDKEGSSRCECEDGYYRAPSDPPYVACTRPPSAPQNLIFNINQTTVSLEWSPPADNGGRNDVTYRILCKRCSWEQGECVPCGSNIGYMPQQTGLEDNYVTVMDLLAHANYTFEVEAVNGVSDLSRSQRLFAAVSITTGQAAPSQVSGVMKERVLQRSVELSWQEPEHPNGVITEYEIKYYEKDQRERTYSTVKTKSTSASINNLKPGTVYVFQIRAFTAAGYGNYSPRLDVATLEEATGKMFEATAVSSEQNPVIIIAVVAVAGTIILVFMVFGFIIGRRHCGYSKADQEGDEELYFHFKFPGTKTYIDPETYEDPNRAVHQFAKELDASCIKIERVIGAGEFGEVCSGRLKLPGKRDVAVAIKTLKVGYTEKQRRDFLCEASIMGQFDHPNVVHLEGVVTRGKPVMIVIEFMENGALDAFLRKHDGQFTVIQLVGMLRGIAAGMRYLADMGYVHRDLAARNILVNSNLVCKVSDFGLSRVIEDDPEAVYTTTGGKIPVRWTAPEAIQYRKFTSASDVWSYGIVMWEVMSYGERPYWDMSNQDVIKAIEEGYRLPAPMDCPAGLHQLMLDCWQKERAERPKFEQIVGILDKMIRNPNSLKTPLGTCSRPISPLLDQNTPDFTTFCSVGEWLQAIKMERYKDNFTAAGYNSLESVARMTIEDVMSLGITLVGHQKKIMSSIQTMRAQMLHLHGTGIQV
# Serine/threonine-protein kinase RIO2 (Homo sapiens), sequence (Q9BVS4 whole entry, looked up): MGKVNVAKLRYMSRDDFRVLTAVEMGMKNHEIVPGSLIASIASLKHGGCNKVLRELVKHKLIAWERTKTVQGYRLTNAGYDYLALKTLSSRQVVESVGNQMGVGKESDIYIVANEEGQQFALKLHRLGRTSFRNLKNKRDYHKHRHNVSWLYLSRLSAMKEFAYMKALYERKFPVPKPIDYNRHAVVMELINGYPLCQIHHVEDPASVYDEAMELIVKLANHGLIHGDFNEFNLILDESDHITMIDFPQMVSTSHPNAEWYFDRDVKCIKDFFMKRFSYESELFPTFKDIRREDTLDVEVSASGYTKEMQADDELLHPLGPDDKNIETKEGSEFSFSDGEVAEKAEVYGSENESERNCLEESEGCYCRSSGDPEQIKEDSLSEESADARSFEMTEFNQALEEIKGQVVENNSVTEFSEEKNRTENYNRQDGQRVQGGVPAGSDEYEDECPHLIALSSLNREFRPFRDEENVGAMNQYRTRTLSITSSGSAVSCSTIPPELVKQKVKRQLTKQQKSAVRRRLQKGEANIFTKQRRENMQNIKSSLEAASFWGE
# Dual specificity protein kinase CLK1, sequence (P49759 whole entry, looked up): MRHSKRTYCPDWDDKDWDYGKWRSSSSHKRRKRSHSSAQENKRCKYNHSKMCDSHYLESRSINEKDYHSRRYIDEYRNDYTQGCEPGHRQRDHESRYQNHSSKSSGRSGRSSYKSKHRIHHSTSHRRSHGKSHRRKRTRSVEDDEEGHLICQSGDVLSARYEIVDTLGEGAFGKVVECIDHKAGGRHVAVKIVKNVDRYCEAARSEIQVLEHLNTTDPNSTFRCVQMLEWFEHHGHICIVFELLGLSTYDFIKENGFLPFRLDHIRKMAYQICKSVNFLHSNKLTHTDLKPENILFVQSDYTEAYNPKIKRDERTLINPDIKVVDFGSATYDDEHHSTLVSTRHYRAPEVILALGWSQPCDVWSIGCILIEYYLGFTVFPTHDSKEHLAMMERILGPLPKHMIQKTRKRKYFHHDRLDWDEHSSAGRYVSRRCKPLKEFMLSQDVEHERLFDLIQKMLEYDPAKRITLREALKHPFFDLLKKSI
smiles,measurement,setting,value
COc1cc(N(C)c2ccnc3ccc(C(F)(F)F)cc23)cc(OC)c1OC,% binding,[1],44%
O=C(NOC[C@H](O)CO)c1ccc(F)c(F)c1Nc1ccc(I)cc1F,% of control,[2],68%
O[C@H]1CC[C@H](Nc2ncc3nc(Nc4c(F)cc(F)cc4F)n([C@H]4CCOC4)c3n2)CC1,% of control,[3],13%
CN(C)CCOc1ccc(-c2nc(-c3ccncc3)c(-c3ccc4c(c3)CC/C4=N\O)[nH]2)cc1,% of control,[4],97%
CCN(CC)CCCCNc1ncc2cc(-c3cc(OC)cc(OC)c3)c(NC(=O)NC(C)(C)C)nc2n1,% of control,[5],100%
CCC(=O)N1CCN(c2ccc(-n3c(=O)ccc4cnc5ccc(-c6cnc7ccccc7c6)cc5c43)cc2C(F)(F)F)CC1,% of control,[6],98%
same,% of control,[7],24%
